How the values were obtained:
[1] = tested on: PR Ser294 phosphorylation; experiment: Breast tumor explants, phospho-Ser294 PR IHC; type: cell-based, human; details: progesterone 10 nM plus U0126 (1 nM as printed elsewhere in the source), 2 hours
Description: De-identified breast tumor samples were collected after surgery and immediately processed for tissue explant maintenance on sponges in cell culture medium, as previously described (Ravindranathan et al. Nature Communications 2013, 4:1923). Samples were derived from six patients pathologically diagnosed with invasive ductal carcinoma (IDC) and scored positive for ER (94-100%) and PR (1-100%), and negative for HER2 expression. […] In additional experiments, six explants were similarly treated with estrogen or progesterone (2 hours) but in combination with 1 uM U0126 (to inhibit ERKs 1/2) and phospho-Ser294 PR levels were measured by IHC.
ER+ luminal tumors were maintained as explants as above and instead treated with either vehicle or progesterone (10 nM) for 2 hours in the presence or absence of the MEK1/2 inhibitor U0126 (1 nM) prior to IHC staining using specific antibodies for total and phospho-Ser294 PR as well as ER-alpha and phospho-ERK1/2 (n=6; see Methods).

[2] = tested on: PR Ser294 phosphorylation; experiment: PR Ser294 phosphorylation in T47D cells (Western blotting, immunofluorescence); type: cell-based, human; details: T47D cells expressing WT or KR PR
Protocol: T47D human breast cancer cell lines engineered to stably express PR variants (null, WT, K388R, or S294A) were previously described (Knutson et al. Breast Cancer Res 2012, 14:R9). T47D cells were maintained in complete minimal essential medium (cMEM) supplemented with 5% fetal bovine serum (FBS), 1% non-essential amino acids (NEAA), 1% penicillin/streptomycin, 6 ng/ml insulin (CellGro, Manassas, Va., USA, catalog #10-010-CV). T47D cells described above were engineered to also stably express RUNX2 shRNAs via the pLKO.1 knockdown expression vector system, which required 25 μg/ml puromycin for the vector. In various experiments, cells or explants were treated with E2, ICI 182 780, R5020, mifepristone, aglepristone, or onapristone (Arno Therapeutics, Inc., Flemington, N.J.).
Immunocytochemistry was performed on T47D cells expressing PR variants to measure total- and phospho-Ser294 PR levels. 500,000 cells were grown on coverslips in 6-well plates, starved in IMEM plus 5% charcoal stripped FBS, treated, and fixed with 4% paraformaldehyde for 20 min. The cells were permeabilized with 0.3% Triton-X100 before incubating with total-PR (clone Ab8, ThermoFisher Scientific, Waltham, Mass.) or custom phospho-Ser294-PR (clone 8508) antibodies. Cells were incubated with fluorescent secondary antibodies (Alexa Fluor 488) and DAPI mounting medium (Life Technologies, ThermoFisher Scientific, Waltham, Mass.) before visualizing on a Zeiss microscope with A4 and L5 filter cubes. Immunoblotting was performed as previously described (Daniel et al. Mol Endocrinol 2007, 21:2890-2906).
In addition, extensive luminal breast cancer heterogeneity may limit the ability to observe a subset of PR-driven breast cancers without patient selection. In this case, PR target gene expression may provide an accurate means of predicting which breast tumors are likely to be influenced by PR-driven biological pathways enacted by active phospho-Ser294 PRs. To probe changes in PR target gene expression in the presence or absence of commonly used PR ligands (R5020, RU486), including diverse antiprogestins (aglepristone, onapristone) currently in development for clinical use, the well characterized model system of T47D breast cancer cells, stably expressing either unmodified wild-type (WT) PR-B or a transcriptionally hyperactive form of deSUMOylated K388R PR-B (KR; this receptor faithfully mimics phosphorylated PR-B with regard to target gene selection) were used (Knutson et al. Pharmacology & therapeutics 2014, 142:114-125; Daniel et al. Mol Endocrinol 2007, 21:2890-2906). Whether the antiprogestins mifepristone (also called RU486), aglepristone, or onapristone alter PR Ser294 phosphorylation were tested in these T47D breast cancer models. Cells were treated for 1 hour with vehicle, progesterone, mifepristone, aglepristone, or onapristone and whole cell lysates were processed for Western blotting or immunofluorescence (IF) analysis (FIG. 4A, B). […] Greater loss of total KR PR protein was also apparent in the presence of progesterone and selected antiprogestins relative to liganded WT PR, consistent with increased turnover of deSUMOylated active receptors relative to intact WT PRs.

[3] = tested on: PR target gene expression; experiment: Global gene expression analysis (Illumina HT-12v4) in T47D cells expressing WT or K388R PR-B; type: cell-based, human; details: T47D KR PR, antiprogestin 10^-7 M, 6 hours
Protocol: For genome-wide microarray expression analysis, T47D cells expressing pIRES-neo3 empty vector, WT PR, or K388R PR were serum starved in modified improved minimum essential media (IMEM) (Gibco, ThermoFisher Scientific, Waltham, Mass.) for one day before treatment. Eight groups were treated with vehicle control, progesterone (10^−8 M), mifepristone (10^−7 M), aglepristone (10^−7 M), onapristone (10^−7 M), or combined treatment of progesterone+mifepristone, progesterone+aglepristone, or progesterone+onapristone for six hours before RNA extraction using a RNeasy kit (QIAgen). DNase I treated (QIAgen) RNA samples from triplicate experiments were prepared for expression analysis using the Illumina HT-12v4 bead chip platform according to standard protocols. Raw data from agonist-treated cells (progesterone or R5020) collected from two identically performed independent experiments (from this study and a previous study: GSE34148 (Knutson et al. Breast Cancer Res 2012, 14:R95)) was combined, normalized, and batch-corrected to ensure that gene expression values were informative across samples from separate experiments. Data were analyzed within multiple common R (R Core Team: R: A language and environment for statistical computing. R Foundation for Statistical Computing, Vienna, Austria 2015, [available on the world wide web at r-project.org/]) and Bioconductor (Gentleman et al. Genome Biol 2004, 5:R80) packages. Raw intensities were log 2 transformed and quantile normalized using lumi (Du et al. Bioinformatics 2008, 24:1547-1548), batch corrected using sva (Leek et al.: sva: Surrogate Variable Analysis. R package version 3.18.0.), and multiple probes for a single gene were collapsed using genefilter (Gentleman et al.: genefilter: genefilter: methods for filtering genes from high-throughput experiments. R package version 1.52.1). Differentially expressed genes (pairwise comparisons between all eight groups) were analyzed in limma (Smyth: Limma: linear models for microarray data. In: Bioinformatics and computational biology solutions using R and Bioconductor. edn.: Springer; 2005: 397-420), where empirical Bayes was used to better estimate the variance of the genes. Biological comparisons (for example, R5020/vehicle) were presented as log 2 fold change including the Benjamini and Hochberg (BH) adjusted P value (Benjamini et al. J Roy Stat Soc B Met 1995, 57:289-300) to account for multiple hypothesis testing. Expression data is available in the GEO database, accession: GSE94363.
Normalized gene expression data were filtered to isolate only high variance genes using the bioconductor package genefilter (Gentleman et al.: genefilter: genefilter: methods for filtering genes from high-throughput experiments. In., R package version 1.50.0 edn: R package version 1.50.0) using interquartile range cutoff value of 0.85. Non-negative matrix factorization (NMF) was performed within R using the NMF package version 0.20.5 (Gaujoux et al. BMC bioinformatics 2010, 11:367) where matrix factors were rank (2-10) and algorithm (brunet or snmf/r) optimized using the nmf function with parameters nrun=30 and seed=123456. […] Clustering and plots were performed in R (NMF package, a heat map function) using Euclidean distance and UPGMA (average) linkage.
PR ligand-mediated promoter selectivity remains understudied, especially in the context of antiprogestins and posttranslationally modified PR species. […]

[4] = tested on: T47D cells; experiment: Mammosphere formation in T47D cells; type: cell-based, human; details: T47D EV, WT, KR or S294A PR-B; estrogen 1 nM, progesterone 10 nM; 14 days
Protocol: Primary Mammospheres: Adherent cells were washed with PBS and dissociated enzymatically in 0.25% trypsin-EDTA (Invitrogen Corporation, Carlsbad, Calif.). Cells were sieved through a 40-μm sieve (BD FALCON, BD Biosciences, Bedford, Mass.) and analyzed microscopically for single-cellularity. Single cells were plated in ultra-low attachment plates (Corning, Inc., Corning, N.Y.) and cultured in a humid incubator. Cells were grown in a serum-free mammary epithelial basal medium (MEBM; Lonza Group, Basel, Switzerland) containing 1% B27 Supplement (Invitrogen Corporation, Carlsbad, Calif.), 1% penicillin-streptomycin (Invitrogen Corporation, Carlsbad, Calif.), 5 μg/ml insulin (Invitrogen Corporation, Carlsbad, Calif.), 20 ng/ml EGF (Sigma-Aldrich, St. Louis, Mo.), 1 ng/ml hydrocortisone (Sigma-Aldrich, St. Louis, Mo.), and 100 μM β-mercaptoethanol. […] Mammosphere Forming Efficiency (MFE) % was calculated by the number of mammospheres per well/number of cells seeded per well.
Secondary Mammospheres: Primary mammospheres were collected by centrifugation (5 min, 1000 rpm), and dissociated enzymatically in 0.25% typsin-EDTA. Cells were sieved through a 40-μm tip strainer (Bel-Art SP Scienceware, South Wayne, N.J.) and analyzed microscopically for single-cellularity. […] Mammosphere Forming Efficiency (MFE) % was calculated by the number of mammospheres per well/number of cells seeded per well. […]

[5] = tested on: breast cancer; details: women receiving tamoxifen; cited from earlier work

N#CC(=C(/N)Sc1ccccc1N)/C(C#N)=C(\N)Sc1ccccc1N [U0126]
effect on progesterone-induced PR Ser294 phosphorylation in tumor explants [1]: blocked

C/C=C\[C@]1(O)CC[C@H]2[C@@H]3CCC4=CC(=O)CCC4=C3[C@@H](c3ccc(N(C)C)cc3)C[C@@]21C [aglepristone]
PR Ser294 phosphorylation, ligand alone ([2]; 1 hour): stimulated robust PR Ser294 phosphorylation | PR Ser294 phosphorylation in the presence of progesterone (co-treatment) ([2]; progesterone plus antiprogestin): also induced Ser294 phosphorylation | regulation of PR target genes in cells expressing KR PR [3]: substantially regulate multiple genes in cells expressing KR PR

C[C@]12CC[C@@H]3c4ccc(O)cc4CC[C@H]3[C@@H]1CC[C@@H]2O [estrogen, estradiol]
total numbers of primary and secondary mammospheres on addition of hormone to culture media [4]: had no significant effect on total numbers in any condition

CC/C(=C(\c1ccccc1)c1ccc(OCCN(C)C)cc1)c1ccccc1 [tamoxifen]
women suffering tumor relapse [5]: ~40%

— patent publication US10942183B2, “Methods of detecting progesterone receptor and of detecting an expression level” (REGENTS OF THE UNIVERSITY OF MINNESOTA, priority 2017, dated 2021)
